Data published in patent US5968479A, “Diagnostic marker” (Daiichi Pure Chemicals Co., Ltd., priority 1995, dated 1999).

Assays:
[1] = Fluorescence spectra of labeling compounds; format: physicochemical
Experimental: Compound 5 (40 mg, 64 μmol) in DMF (1 ml) was added with N-hydroxysuccinic anhydride (8.8 mg, 76 μmol) and N,N'-dicyclohexylcarbodiimide (DCC, 26.4 mg, 0.128 mmol) and the mixture was allowed to react at 4° C. overnight. Ether (10 ml) was added to the reaction mixture and the resulting residue was washed three times with ether. The solid mass was dissolved in chloroform (400 μl), and the solution was added with 0.1M aqueous hydrochloric acid (200 μl) and stirred. Then, the chloroform layer was separated and washed three times with water. The chloroform solution was concentrated under reduced pressure to obtain Compound 6 as black green solid (a labeling compound of the formula (III)) (38 mg, yield 78.5%). MS (FAB) m/e=720(M^+); Fluorescence spectra: λex =769 nm, λem =820 nm (10% DMSO in water).
Compound 5 (20 mg, 32 μmol) in DMF (1 ml) was added with sodium N-hydroxysuccinic anhydride sulfonate (8.3 mg, 38 μmol) and N,N'-dicyclohexylcarbodiimide (13.2 mg, 64 μmol), and the mixture was allowed to react at 4° C. overnight and then filtered. Ether (10 ml) was added to the filtrate and the resulting residue was washed three times with ether. The solid mass was dissolved in […] (400 μl), and the solution was added with 0.1M aqueous hydrochloric acid (200 μl) and stirred. Then, the chloroform layer was separated and washed three times with water. The chloroform solution was concentrated under reduced pressure to obtain Compound 7 as black green solid (labeling compound of the formula (III), 17 mg, yield 66.4%). MS (FAB) m/e=822 (M^+ Na); Fluorescence spectra λex =769 nm, λem =820 nm (10% DMSO in water).
Compound 5 (20 mg, 32 μmol) in DMF (0.5 ml) was added with N-(2-(N'-maleimide)ethyl)piperazine dihydrochloride (PEM, 4.4 mg, 38 μmol), triethylamine (TEA, 20 μl, 0.146 mmol) and DCC (10.2 mg, 49 μmol), and the mixture was allowed to react at 4° C. overnight. Ether (10 ml) was added to the reaction mixture and the resulting residue was washed three times with ether. The solid mass was dissolved in chloroform (400 μl), and the solution was added with 0.1M aqueous hydrochloric acid (200 μl) and stirred. Then, the chloroform layer was separated and washed three times with water. The chloroform solution was concentrated under reduced pressure to obtain Compound 8 as black green solid (labeling compound of the formula (III), 20 mg, yield 70.5%). MS (FAB) m/e=814(M^+); Fluorescence spectra λex =773 nm, λem =821 nm (10% DMSO in water).
Compound 6 (20 mg, 26.4 μmol) in DMF (0.5 ml) was added with hydrazine monohydrochloride (9.0 mg, 0.131 mmol) and the mixture was allowed to react overnight. The reaction mixture was filtered and the filtrate was concentrated under reduced pressure. The residue was dissolved in chloroform (0.5 ml) and the chloroform solution was washed with water three times. The chloroform layer was concentrated under reduced pressure to obtain Compound 9 as black green solid (16 mg, yield 90.0%). MS (FAB) m/e=637(M^+); Fluorescence spectra: λex =771 nm, λem =820 nm (10% DMSO in water).
Compound 12 (30 mg, 41.8 μmol) in a 50 v/v % aqueous solution of THF (1 ml) was added with sodium N-hydroxysuccinic anhydride-sulfonate (16.8 mg, 77.4 μmol) and N,N'-dicyclohexylcarbodiimide (25.8 mg, 0.125 mmol), and the mixture was allowed to react at 4° C. overnight and then filtered. The filtrate was concentrated under reduced pressure at a temperature of 20° C. or less. The residue was added with ethyl acetate (10 ml) and the deposited crystals were further washed with ether three times. These crystals were dissolved in water (200 μl) and purified using a Sephadex LH20 column (eluent: water) to obtain Compound 13 as black green solid (labeling compound of the formula (III), 34 mg, yield 88.8%). MS (FAB) m/e=892(M^-); Fluorescence spectrum λex =771 nm, λem =822 nm (water). […]

[2] = Water solubility of labeling compounds before (zwitterion type) and after (double salt type) salt formation; format: physicochemical; conditions: for solubility: water, zwitterion type
Experimental: The above-obtained Compound 17 (100 mg, 0.11 mmol) was dissolved in methanol (2 ml) and the solution was added with a solution of sodium iodide (1 g, 6.7 mmol) in methanol (5 ml). The methanol solution was concentrated to a half of the volume and cooled to 4° C. overnight. The precipitated crystals were collected by filtration. The obtained green crystals were dried in a vacuum desiccator to give Compound 18 (labeling compound of the formula (V), 85 mg, yield 72%). Data of water-solubility and infrared absorption spectrum data (IR) were obtained before the formation of the salt with sodium iodide (zwitterion type) and after the salt formation. The iodide content was determined by the Schoniger method.
Indocyanine green-N-butanoic acid sulfosuccinimide ester (Compound 19) was prepared according to the method of Example 3. Compound 19 (150 mg, 0.17 mmol) was dissolved in methanol (3 ml) and the solution was added with a solution of sodium iodide (1.5 g, 10 mmol) in methanol (8 ml). The methanol was concentrated to a half of the volume and the concentrate was cooled to 4° C. overnight. The precipitated crystals were collected by filtration. The obtained green crystals were dried in a vacuum desiccator to give Compound 20 (labeling compound of the formula (V), 117 mg, yield 66%). Data of water-solubility and infrared absorption spectra data (IR) were obtained before and after the salt formation with sodium iodide. Iodine content was determined by the Schoniger method.
Indocyanine green-N-hexanoic acid sulfosuccinimide ester (Compound 21) was prepared according to the method of Example 3. Compound 21 (100 mg, 0.11 mmol) was dissolved in methanol (2 ml) and the solution was added with a solution of sodium perchlorate (0.3 g, 2.5 mmol) in methanol (20 ml). The methanol was concentrated to a quarter of the volume under reduced pressure and the concentrate was cooled to 4° C. overnight. The precipitated crystals were collected by filtration. The obtained green crystals were dried in a vacuum desiccator to give Compound 22 (labeling compound of the formula (V), 23 mg, yield 21%). Data of water-solubility and IR were obtained before and after the salt formation with sodium perchlorate.

Structure (SMILES)	Fluorescence spectra λem ([1]; 10% DMSO in water) [nm]	Fluorescence spectra λex ([1]; 10% DMSO in water) [nm]	other results
CC[N+]1=C(C=CC=CC=CC=C2N(CCCCCC(=O)ON3C(=O)CCC3=O)c3ccc4ccccc4c3C2(C)C)C(C)(C)c2c1ccc1ccccc21 [Compound 6]	820	769	
CC[N+]1=C(C=CC=CC=CC=C2N(CCCCCC(=O)ON3C(=O)CC(S(=O)(=O)O)C3=O)c3ccc4ccccc4c3C2(C)C)C(C)(C)c2c1ccc1ccccc21 (stereo not shown) [Compound 7]	820	769	
CC[N+]1=C(C=CC=CC=CC=C2N(CCCCCC(=O)N3CCN(CCN4C(=O)C=CC4=O)CC3)c3ccc4ccccc4c3C2(C)C)C(C)(C)c2c1ccc1ccccc21 [Compound 8]	821	773	
CC[N+]1=C(C=CC=CC=CC=C2N(CCCCCC(=O)NN)c3ccc4ccccc4c3C2(C)C)C(C)(C)c2c1ccc1ccccc21 [Compound 9]	820	771	
CC1(C)C(=CC=CC=CC=CC2=[N+](CCCS(=O)(=O)[O-])c3ccc4ccccc4c3C2(C)C)N(CCCCCC(=O)ON2C(=O)CC(S(=O)(=O)O)C2=O)c2ccc3ccccc3c21 (stereo not shown) [Compound 13]			Fluorescence spectra λem ([1]; water): 822 nm; Fluorescence spectra λex ([1]; water): 771 nm
CC1(C)C(=CC=CC=CC=CC2=[N+](CCCCS(=O)(=O)[O-])c3ccc4ccccc4c3C2(C)C)N(CCCCCC(=O)ON2C(=O)CC(S(=O)(=O)O)C2=O)c2ccc3ccccc3c21 (stereo not shown) [Compound 17, indocyanine green-N-hexanoic acid sulfosuccinimide ester]			Fluorescence spectra λem ([1]; water): 807 nm; Fluorescence spectra λex ([1]; water): 768 nm
CC1(C)C(=CC=CC=CC=CC2=[N+](CCCCS(=O)(=O)[O-])c3ccc4ccccc4c3C2(C)C)N(CCCCCC(=O)ON2C(=O)CC(S(=O)(=O)O)C2=O)c2ccc3ccccc3c21 (stereo not shown) [Compound 18]			Water solubility ([2]; double salt type (sodium iodide)): 1 mg/0.8 ml
CC1(C)C(=CC=CC=CC=CC2=[N+](CCCCS(=O)(=O)[O-])c3ccc4ccccc4c3C2(C)C)N(CCCC(=O)ON2C(=O)CC(S(=O)(=O)O)C2=O)c2ccc3ccccc3c21 (stereo not shown) [Compound 19, Indocyanine green-N-butanoic acid sulfosuccinimide ester]			solubility [2]: ≥ 100 µg/mL
CC1(C)C(=CC=CC=CC=CC2=[N+](CCCCS(=O)(=O)[O-])c3ccc4ccccc4c3C2(C)C)N(CCCCCC(=O)ON2C(=O)CC(S(=O)(=O)O)C2=O)c2ccc3ccccc3c21 (stereo not shown) [Compound 21, Indocyanine green-N-hexanoic acid sulfosuccinimide ester]			solubility [2]: ≥ 100 µg/mL
CC1(C)C(=CC=CC=CC=CC2=[N+](CCCCS(=O)(=O)[O-])c3ccc4ccccc4c3C2(C)C)N(CCCCCC(=O)ON2C(=O)CC(S(=O)(=O)O)C2=O)c2ccc3ccccc3c21 (stereo not shown) [Compound 22]			Water solubility ([2]; double salt type (sodium perchlorate)): 1 mg/5 ml
